Measured values from patent publication US20220233743A1, “WOUND CLOSURE ENHANCEMENT METHODS AND MATERIALS VIA MANIPULATION OR AUGMENTATION OF LIPIN-1” (Board of Supervisors of Louisiana State University and …, priority 2019, published 2022).

System: BMDMs
Experiment: OCR in response to AC with and without etomoxir, Seahorse
Assay type: cell-based, mouse
Conditions: for OCR in response to AC with pretreatment of etomoxir: 40 μM etomoxir 15 min, then AC 4:1
Experimental: Thymocytes (Jurkats) were subjected to UV light for 20 min in a 10-cm dish in sterile PBS. Cells were collected, and media was changed to D10 media followed by a 2-h incubation at 37° C. to allow for cells to become apoptotic. Cells were collected and centrifuged at 400×g for 5 min. Cells were resuspended in 2×10^−6 M PKH26 for 3 min. Staining was stopped by adding equivalent volumes of FBS.
BMDMs collected from lipin-1^mEnzyKO, lipin-1^mKO, and littermate control mice were seeded at a density of 150,000 cells per well on XF24 cell culture microplates and allowed to incubate for 4 h. Experiments were conducted in XF assay medium containing 25 mM glucose, 2 mM 1-glutamine, and 1 mM sodium pyruvate and analyzed using a Seahorse XFe 24 extracellular flux analyzer (Agilent Technologies). Where indicated, the following were injected: ATP-synthesis inhibitor oligomycin (Oligo; 1 μM), carbonyl cyanide 4-(trifluoromethoxy)phenylhydrazone (FCCP) (2 μM) to uncouple ATP synthesis, rotenone (100 nM) to block complex I, and antimycin A (1 μM) (Sigma-Aldrich) to block complex III. Oxygen consumption rate (OCR) was analyzed using Wave Desktop software (Agilent Technologies).
The inventors have shown that lipin-1 is required for increased OCR in response to free fatty acids, but the inventors wanted to know if lipin-1 regulates β-oxidation in response to AC during efferocytosis. BMDMs from WT, lipin-1^mEnzyKO, and lipin-1^mKO mice were either pretreated with or without etomoxir to prevent fatty acid transport into the mitochondria followed by the addition of AC to the macrophages at an AC/BMDM ratio of 4:1. AC were incubated with BMDMs for 30 min prior to the start of Seahorse analysis. […] Etomoxir treatment of unstimulated (no AC) WT, lipin-1 EKO, and lipin-1 KO macrophages allowed the inventors to determine basal lipid use.

## CCOC(=O)[C@@]1(CCCCCCOc2ccc(Cl)cc2)CO1 [etomoxir]
WT macrophages
  OCR in response to AC with pretreatment of etomoxir: significant reduction
lipin-1 EKO macrophages
  OCR in response to AC with pretreatment of etomoxir: significant reduction
lipin-1 KO macrophages
  OCR in response to AC with pretreatment of etomoxir: no significant difference in OCR
Unstimulated (no AC) WT macrophages
  OCR with etomoxir alone (basal lipid use): significant reduction in OCR
Unstimulated (no AC) lipin-1 EKO macrophages
  OCR with etomoxir alone (basal lipid use): significant reduction in OCR
Unstimulated (no AC) lipin-1 KO macrophages
  OCR with etomoxir alone (basal lipid use): significant reduction in OCR
